PMC6704710, “Preclinical evaluation of 3D185, a novel potent inhibitor of FGFR1/2/3 and CSF-1R, in FGFR-dependent and macrophage-dominant cancer models” (Journal of Experimental & Clinical Cancer Research : CR, 2019)

Legend:
Test in all cases: Eurofins kinase panel
Type in all cases: biochemical
Settings in all cases: read-out: Inhibition rate (%)
[1] = target: T1, STK32A(h) (Homo sapiens, UniProt Q8WU08)
T1 construct: purchased Eurofins (KinaseProfiler)

[2] = target: T2, CK1γ3(h) (Homo sapiens, UniProt Q9Y6M4)
T2 construct: purchased Eurofins (KinaseProfiler)
T2 sequence (Q9Y6M4 whole entry): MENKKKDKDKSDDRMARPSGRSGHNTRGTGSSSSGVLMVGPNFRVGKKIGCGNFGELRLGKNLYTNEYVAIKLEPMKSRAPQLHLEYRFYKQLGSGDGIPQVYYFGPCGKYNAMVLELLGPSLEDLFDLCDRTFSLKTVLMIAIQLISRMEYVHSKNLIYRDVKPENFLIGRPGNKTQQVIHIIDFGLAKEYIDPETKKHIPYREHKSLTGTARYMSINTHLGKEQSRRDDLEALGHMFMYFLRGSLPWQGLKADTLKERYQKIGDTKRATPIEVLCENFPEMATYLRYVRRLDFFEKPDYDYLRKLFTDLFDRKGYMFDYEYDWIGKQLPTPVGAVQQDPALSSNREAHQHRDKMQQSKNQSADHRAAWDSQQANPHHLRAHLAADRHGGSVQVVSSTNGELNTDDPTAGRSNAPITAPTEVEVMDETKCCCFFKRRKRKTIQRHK

[3] = target: T3, LOK(h) (Homo sapiens, UniProt O94804)
T3 construct: purchased Eurofins (KinaseProfiler)
T3 sequence (O94804 whole entry): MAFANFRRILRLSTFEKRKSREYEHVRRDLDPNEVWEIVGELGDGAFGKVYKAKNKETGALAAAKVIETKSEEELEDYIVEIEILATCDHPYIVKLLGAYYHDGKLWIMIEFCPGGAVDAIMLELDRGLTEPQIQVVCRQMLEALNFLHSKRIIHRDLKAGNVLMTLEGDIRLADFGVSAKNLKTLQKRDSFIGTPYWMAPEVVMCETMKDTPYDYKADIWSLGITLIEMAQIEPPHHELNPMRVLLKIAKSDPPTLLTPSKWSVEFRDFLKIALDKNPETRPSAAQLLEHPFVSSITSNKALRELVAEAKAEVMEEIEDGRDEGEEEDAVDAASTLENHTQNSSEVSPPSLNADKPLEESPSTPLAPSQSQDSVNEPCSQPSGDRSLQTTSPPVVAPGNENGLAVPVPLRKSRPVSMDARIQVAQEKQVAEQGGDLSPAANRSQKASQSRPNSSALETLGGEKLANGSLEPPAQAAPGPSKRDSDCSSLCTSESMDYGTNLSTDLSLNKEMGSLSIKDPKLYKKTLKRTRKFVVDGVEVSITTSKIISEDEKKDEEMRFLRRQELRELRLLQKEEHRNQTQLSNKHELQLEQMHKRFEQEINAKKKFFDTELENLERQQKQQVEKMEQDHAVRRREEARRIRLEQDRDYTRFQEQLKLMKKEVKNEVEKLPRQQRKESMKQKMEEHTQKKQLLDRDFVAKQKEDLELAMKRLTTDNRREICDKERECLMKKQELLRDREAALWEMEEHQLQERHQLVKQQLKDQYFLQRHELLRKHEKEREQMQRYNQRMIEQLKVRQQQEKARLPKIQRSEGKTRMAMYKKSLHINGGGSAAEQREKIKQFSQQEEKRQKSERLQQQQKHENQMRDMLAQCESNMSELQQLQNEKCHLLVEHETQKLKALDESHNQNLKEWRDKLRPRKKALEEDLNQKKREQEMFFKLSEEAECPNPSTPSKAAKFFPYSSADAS

[4] = target: T4, Aurora-B(h) (Homo sapiens, UniProt Q96GD4)
T4 construct: purchased Eurofins (KinaseProfiler)
T4 sequence (Q96GD4 whole entry): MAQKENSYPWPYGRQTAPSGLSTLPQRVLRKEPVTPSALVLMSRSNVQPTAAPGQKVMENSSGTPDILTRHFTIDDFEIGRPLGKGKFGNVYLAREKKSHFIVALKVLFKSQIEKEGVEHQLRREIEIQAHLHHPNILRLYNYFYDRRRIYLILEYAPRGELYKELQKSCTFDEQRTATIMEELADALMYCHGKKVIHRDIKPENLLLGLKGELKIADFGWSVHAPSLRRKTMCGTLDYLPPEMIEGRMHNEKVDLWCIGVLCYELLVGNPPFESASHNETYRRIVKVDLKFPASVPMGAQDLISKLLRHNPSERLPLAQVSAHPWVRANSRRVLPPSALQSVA

[5] = target: T5, LKB1(h) (Homo sapiens, UniProt Q15831)
T5 construct: purchased Eurofins (KinaseProfiler)
T5 sequence (Q15831 1-433): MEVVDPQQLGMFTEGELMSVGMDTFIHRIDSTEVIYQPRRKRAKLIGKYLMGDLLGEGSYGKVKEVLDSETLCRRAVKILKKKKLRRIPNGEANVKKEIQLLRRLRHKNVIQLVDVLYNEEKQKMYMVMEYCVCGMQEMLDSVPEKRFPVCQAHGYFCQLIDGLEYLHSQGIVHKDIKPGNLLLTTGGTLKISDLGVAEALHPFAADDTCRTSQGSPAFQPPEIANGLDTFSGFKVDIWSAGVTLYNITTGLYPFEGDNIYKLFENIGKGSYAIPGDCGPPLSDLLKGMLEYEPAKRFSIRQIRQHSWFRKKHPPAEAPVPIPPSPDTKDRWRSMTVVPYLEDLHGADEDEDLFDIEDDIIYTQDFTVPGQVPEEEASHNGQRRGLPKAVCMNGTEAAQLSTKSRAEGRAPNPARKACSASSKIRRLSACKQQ
T5 sequence (Q7RTN6 1-431 partner): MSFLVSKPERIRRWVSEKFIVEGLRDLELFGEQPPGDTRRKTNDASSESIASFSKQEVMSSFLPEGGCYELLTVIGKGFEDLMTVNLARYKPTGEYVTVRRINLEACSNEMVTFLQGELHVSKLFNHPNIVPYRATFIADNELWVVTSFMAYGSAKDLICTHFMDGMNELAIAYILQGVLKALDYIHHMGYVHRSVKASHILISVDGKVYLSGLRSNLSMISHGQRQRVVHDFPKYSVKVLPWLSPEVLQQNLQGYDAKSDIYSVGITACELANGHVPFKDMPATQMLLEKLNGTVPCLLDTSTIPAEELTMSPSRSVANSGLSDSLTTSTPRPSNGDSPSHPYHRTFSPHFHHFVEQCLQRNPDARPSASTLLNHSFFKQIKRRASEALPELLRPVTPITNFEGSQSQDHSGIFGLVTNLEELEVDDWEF
T5 sequence (Q9Y376 1-341 partner): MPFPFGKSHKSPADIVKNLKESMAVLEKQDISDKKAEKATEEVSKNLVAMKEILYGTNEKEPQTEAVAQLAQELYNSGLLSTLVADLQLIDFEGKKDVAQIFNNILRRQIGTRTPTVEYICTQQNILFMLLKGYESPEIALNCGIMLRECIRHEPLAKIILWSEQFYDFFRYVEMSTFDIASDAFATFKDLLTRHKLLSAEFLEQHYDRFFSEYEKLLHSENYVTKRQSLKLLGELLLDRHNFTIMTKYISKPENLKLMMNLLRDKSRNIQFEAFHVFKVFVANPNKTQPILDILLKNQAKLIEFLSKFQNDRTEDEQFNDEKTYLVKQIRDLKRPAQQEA

[6] = target: T6, MAPK2(h) (Homo sapiens, UniProt P28482)
T6 construct: purchased Eurofins (KinaseProfiler)
T6 sequence (P28482 whole entry): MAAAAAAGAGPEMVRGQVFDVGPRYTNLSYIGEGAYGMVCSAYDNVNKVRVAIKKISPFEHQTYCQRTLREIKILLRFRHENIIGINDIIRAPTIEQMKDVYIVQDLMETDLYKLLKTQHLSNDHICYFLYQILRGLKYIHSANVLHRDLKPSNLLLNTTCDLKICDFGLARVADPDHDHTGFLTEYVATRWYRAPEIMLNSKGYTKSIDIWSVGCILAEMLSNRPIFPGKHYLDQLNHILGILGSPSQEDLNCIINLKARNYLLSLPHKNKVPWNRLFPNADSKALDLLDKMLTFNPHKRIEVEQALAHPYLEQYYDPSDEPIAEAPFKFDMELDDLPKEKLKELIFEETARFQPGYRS

[7] = target: T7, ATR/ATRIP(h) (Homo sapiens, UniProt Q13535)
T7 construct: purchased Eurofins (KinaseProfiler)

[8] = target: T8, PRK2(h) (Homo sapiens, UniProt Q16513)
T8 construct: purchased Eurofins (KinaseProfiler)
T8 sequence (Q16513 whole entry): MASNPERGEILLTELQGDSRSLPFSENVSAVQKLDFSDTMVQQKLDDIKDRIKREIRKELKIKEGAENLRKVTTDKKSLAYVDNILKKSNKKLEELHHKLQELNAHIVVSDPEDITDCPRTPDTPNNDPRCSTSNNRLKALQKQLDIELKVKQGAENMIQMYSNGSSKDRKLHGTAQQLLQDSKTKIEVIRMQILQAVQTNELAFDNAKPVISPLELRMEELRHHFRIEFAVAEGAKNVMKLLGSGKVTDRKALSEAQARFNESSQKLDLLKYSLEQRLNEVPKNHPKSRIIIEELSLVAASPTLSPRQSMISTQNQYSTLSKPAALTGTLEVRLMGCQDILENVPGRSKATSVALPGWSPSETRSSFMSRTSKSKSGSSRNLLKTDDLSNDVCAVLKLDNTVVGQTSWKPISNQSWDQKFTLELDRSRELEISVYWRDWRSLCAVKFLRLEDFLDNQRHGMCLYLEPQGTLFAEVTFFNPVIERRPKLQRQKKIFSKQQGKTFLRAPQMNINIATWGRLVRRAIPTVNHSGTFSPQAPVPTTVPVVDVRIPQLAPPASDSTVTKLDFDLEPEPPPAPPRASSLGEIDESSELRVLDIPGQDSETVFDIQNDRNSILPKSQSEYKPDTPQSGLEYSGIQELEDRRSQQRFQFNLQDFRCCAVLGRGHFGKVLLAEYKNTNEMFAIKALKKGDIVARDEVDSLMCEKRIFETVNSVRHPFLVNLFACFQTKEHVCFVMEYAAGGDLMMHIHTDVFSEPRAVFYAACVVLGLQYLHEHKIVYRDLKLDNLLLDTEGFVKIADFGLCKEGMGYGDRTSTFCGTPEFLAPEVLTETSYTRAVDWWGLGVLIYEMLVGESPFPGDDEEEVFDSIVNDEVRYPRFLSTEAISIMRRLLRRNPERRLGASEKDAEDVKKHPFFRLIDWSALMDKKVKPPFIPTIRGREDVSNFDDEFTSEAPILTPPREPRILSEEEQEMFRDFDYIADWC

[9] = target: T9, PTK5(h) (Homo sapiens, UniProt P42685)
T9 construct: purchased Eurofins (KinaseProfiler)
T9 sequence (P42685 whole entry): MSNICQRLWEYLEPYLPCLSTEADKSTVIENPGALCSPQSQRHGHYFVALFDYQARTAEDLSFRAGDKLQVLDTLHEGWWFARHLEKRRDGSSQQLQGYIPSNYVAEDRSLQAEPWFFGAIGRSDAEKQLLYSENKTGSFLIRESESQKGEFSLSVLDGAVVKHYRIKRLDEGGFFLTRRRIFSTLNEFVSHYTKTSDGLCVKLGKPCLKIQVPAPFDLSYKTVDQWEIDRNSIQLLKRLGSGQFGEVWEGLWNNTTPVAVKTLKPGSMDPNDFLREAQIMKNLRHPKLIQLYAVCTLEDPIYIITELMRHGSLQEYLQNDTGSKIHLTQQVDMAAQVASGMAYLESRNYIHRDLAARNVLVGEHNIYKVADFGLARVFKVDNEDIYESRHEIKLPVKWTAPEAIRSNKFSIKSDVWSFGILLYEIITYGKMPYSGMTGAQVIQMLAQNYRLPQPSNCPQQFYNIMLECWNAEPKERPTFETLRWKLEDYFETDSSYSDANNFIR

[10] = target: T10, TLK1(h) (Homo sapiens, UniProt Q9UKI8)
T10 construct: purchased Eurofins (KinaseProfiler)
T10 sequence (Q9UKI8 1-766): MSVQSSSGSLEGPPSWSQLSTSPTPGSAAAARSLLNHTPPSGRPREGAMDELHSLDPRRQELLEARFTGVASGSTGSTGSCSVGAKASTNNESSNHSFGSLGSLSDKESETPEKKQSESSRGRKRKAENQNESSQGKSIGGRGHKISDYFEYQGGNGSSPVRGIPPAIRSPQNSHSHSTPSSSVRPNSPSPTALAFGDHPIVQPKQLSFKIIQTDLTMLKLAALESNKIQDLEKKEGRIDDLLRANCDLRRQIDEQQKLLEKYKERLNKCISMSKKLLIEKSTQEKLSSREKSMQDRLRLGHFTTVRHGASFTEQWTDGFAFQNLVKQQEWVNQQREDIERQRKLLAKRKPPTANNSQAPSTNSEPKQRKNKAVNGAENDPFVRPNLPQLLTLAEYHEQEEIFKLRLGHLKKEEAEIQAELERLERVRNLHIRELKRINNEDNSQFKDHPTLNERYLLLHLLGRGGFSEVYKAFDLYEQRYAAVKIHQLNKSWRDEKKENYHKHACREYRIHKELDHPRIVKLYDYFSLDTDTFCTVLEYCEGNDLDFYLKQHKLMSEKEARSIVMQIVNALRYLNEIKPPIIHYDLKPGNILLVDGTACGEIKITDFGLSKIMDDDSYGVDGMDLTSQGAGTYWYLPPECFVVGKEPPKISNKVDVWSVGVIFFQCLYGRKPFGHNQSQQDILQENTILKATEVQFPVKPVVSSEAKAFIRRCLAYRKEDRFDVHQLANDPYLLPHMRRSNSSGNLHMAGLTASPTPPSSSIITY

T1 sequence (Q8WU08 whole entry): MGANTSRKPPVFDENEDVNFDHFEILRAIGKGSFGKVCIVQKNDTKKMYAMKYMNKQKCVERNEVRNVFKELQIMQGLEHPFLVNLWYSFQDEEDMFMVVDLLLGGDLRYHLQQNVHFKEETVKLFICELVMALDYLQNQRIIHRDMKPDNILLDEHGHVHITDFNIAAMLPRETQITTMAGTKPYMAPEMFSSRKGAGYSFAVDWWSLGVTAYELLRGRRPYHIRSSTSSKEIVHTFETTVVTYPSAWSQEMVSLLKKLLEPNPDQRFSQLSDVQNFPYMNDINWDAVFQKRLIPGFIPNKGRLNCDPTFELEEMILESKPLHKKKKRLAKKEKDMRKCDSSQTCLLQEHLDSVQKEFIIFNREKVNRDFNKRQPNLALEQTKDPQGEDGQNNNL

Compound: COc1cc(OC)c(Cl)c(-c2ccc3c(NC(=O)c4ccc(N5CCNC(C)(C)C5)cc4)n[nH]c3n2)c1Cl [3D185]
- inhibition at 0.01 µM ([1]; 10 nM): -5%
- inhibition at 0.1 µM ([1]; 100 nM): 0%
- inhibition at 1 µM ([1]; 1000 nM): 2%
- inhibition at 0.01 µM ([2]; 10 nM): 1%
- inhibition at 0.1 µM ([2]; 100 nM): -10%
- inhibition at 1 µM ([2]; 1000 nM): 12%
- inhibition at 0.01 µM ([3]; 10 nM): 1%
- inhibition at 0.1 µM ([3]; 100 nM): 27%
- inhibition at 1 µM ([3]; 1000 nM): 77%
- inhibition at 0.01 µM ([4]; 10 nM): 7%
- inhibition at 0.1 µM ([4]; 100 nM): -4%
- inhibition at 1 µM ([4]; 1000 nM): 5%
- inhibition at 0.01 µM ([5]; 10 nM): -9%
- inhibition at 0.1 µM ([5]; 100 nM): 7%
- inhibition at 1 µM ([5]; 1000 nM): 2%
- inhibition at 0.01 µM ([6]; 10 nM): -5%
- inhibition at 0.1 µM ([6]; 100 nM): -3%
- inhibition at 1 µM ([6]; 1000 nM): 3%
- inhibition at 0.01 µM ([7]; 10 nM): -4%
- inhibition at 0.1 µM ([7]; 100 nM): 10%
- inhibition at 1 µM ([7]; 1000 nM): 6%
- inhibition at 0.01 µM ([8]; 10 nM): 12%
- inhibition at 0.1 µM ([8]; 100 nM): 4%
- inhibition at 1 µM ([8]; 1000 nM): 3%
- inhibition at 0.01 µM ([9]; 10 nM): 19%
- inhibition at 0.1 µM ([9]; 100 nM): 64%
- inhibition at 1 µM ([9]; 1000 nM): 91%
- inhibition at 0.01 µM ([10]; 10 nM): -1%
- inhibition at 0.1 µM ([10]; 100 nM): -4%
- inhibition at 1 µM ([10]; 1000 nM): -8%
